Assay [1] deals with BCL-2 (Homo sapiens (Human), UniProt P10415). The experiment in a line: Protein-protein interaction assay BCL-2/Bad BH3 peptide (BCL-2 assay, TR-FRET). The following applies: read-out: BCL-2 Assay IC50 (median). It counts as binding. The protocol:
Assay 3 Protein-Protein Interaction Assay: BCL-2/Bad BH3 Peptide (BCL-2 Assay)
The dose-dependent inhibition by the compounds described in this invention of the interaction between BCL-2 and the BH3 domain of Bad (both human) was determined using a steady state binding competition assay with time-resolved fluorescence energy transfer (TR-FRET) readout. For that purpose BCL-2 (amino acids 1-211, C-terminal fused to a hexahistidine (6×His) tag (SEQ ID 5) and a synthetic Bad BH3-derived peptide of sequence Biotin-PEG2-PEG2-[…]-Nle-[…]-amide (SEQ ID 4) served as protein receptor and tracer ligand respectively. The recombinant BCL-2 protein (expressed in E. coli) was purchased from BPS Bioscience (San Diego, Calif., USA). The Bad BH3-derived peptide can be obtained from e.g. Biosyntan (Berlin, Germany).
In the assay 11 different concentrations of each compound (0.1 nM, 0.33 nM, 1.1 nM, 3.8 nM, 13 nM, 44 nM, 0.15 μM, 0.51 μM, 1.7 μM, 5.9 μM and 20 μM) were typically measured as duplicates in the same microtiter plate. For that, 100-fold concentrated DMSO solutions were prepared by serial dilutions (1:3.4) of a 2 mM stock solution in a clear, 384-well microtiter plate (Greiner Bio-One, Frickenhausen, Germany). From there, 50 nl were transferred in a dark test plate (Greiner Bio-One, Frickenhausen, Germany). The assay was initiated by addition of 2 μL of a 2,5-fold concentrated His-BCL-2 solution (usually for a 1 nM end concentration in 5 μL reaction volume) in aqueous assay buffer [50 mM Tris/HCl pH 7, 100 mM sodium chloride (NaCl), 50 mM potassium fluoride (KF), 0.005% Tween-20, 2 mM DTT, 0.1% bovine gamma globulin (BGG)] to the compounds in the assay plate. This was followed by a 10-minute incubation step at 22° C. for pre-equilibration of the putative complex between His-BCL-2 and the compounds. After that, 3 μL of a 1.67-fold concentrated solution (in assay buffer) consisting of Bad BH3-derived peptide (1 nM end concentration) and TR-FRET detection reagents [1.67 nM anti-His-Eu cryptate and 1.67 nM streptavidin-XL665 (both from Cisbio Bioassays, Codolet, France)], were added.
The mixture was incubated in the dark for one hour at 22° C. and then overnight at 4° C. The formation of BCL-2/Bad complexes was determined by measuring the resonance energy transfer of the anti-His-Eu-cryptate antibody to the streptavidin-XL665 present in the reaction. For that purpose, the fluorescence emission at 620 nm and 665 nm after excitation at 330-350 nm was measured in a TR-FRET measuring instrument, for instance a Rubystar or a Pherastar (both from BMG Lab Technologies, Offenburg, Germany) or a Viewlux (Perkin-Elmer). The ratio of the emission at 665 nm and at 622 nm was used as indicator of the amount of BCL-2/Bad complexes present.
The resulting data (ratio) were normalized, taking 0% inhibition as the mean value of control measurements (usually 32 data points) where all reagents were included. In this case 50 nl DMSO were used instead of compounds. […] IC50 values were determined by regression analysis based on a 4 parameter equation (minimum, maximum, IC50, Hill; Y=Max+(Min−Max)/(1+(X/IC50)^Hill) using the Screener Software (Genedata).
(In general: In TR-FRET formats the signal depends on donor and acceptor labels being close together.)

Assay [2] has as its system SUDHL5 cells. As to the kind of experiment: Induction of caspase-3/7 activity in SUDHL5 cells (Assay 4). It counts as cell-based. The note with it: caspase-3/7 induction, 3 h, read-out: Caspase SUDHL5 EC50 (median). Put shortly:
(§1)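 Caspase-3/7 activity measured in DLBCL lines after 3 h compound exposure at 37 °C, following overnight plating; Caspase-Glo 3/7 luminescence read after 1 h at 37 °C. Medium-only background subtracted, values normalized to mean of DMSO-treated cells.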

Assay [3] concerns SUDHL10 cells. As to the kind of experiment: Induction of caspase-3/7 activity in SUDHL10 cells (Assay 4). It counts as cell-based. The following applies: caspase-3/7 induction, 3 h, read-out: Caspase SUDHL10 EC50 (median). Summed up: as §1
Assay [4] relates to AMO-1 cells. As to the kind of experiment: Antiproliferation assay AMO-1 (Assay 7). It counts as cell-based. The note with it: 72 h, CellTiter-Glo, read-out: Antiproli AMO-1 IC50 median. Put shortly:
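After overnight attachment at 37 °C, cells received compound for 72 h in a humidified incubator. Viability was read by CellTiter-Glo luminescence. A separate day 0 plate defined starting cell number for IC50 fitting against DMSO controls.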

Counter-ions that a name gives are not always drawn. Like-named read-outs stand apart in the source and are kept apart here.

For orientation: IC50 means the point on the concentration scale where inhibition reaches its midpoint. The term EC50 denotes the concentration at which the effect is half-maximal.

Chain of BCL-2 (P10415 1-211): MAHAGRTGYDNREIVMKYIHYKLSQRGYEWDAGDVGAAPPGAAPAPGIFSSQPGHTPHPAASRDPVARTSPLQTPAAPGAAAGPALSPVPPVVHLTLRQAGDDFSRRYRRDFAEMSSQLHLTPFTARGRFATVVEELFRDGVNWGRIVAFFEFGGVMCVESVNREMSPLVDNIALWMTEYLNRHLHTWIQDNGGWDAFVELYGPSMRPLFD

As to `CCc1c2c(nn1C)C(Cc1ccccc1)OCCCCn1c(C(=O)O)c(CCCOc3cccc4cc(F)ccc34)c3ccc(Cl)c-2c31` (racemic) [Example 92, (rac)-(rac-15)-benzyl-4-chloro-3-ethyl-7-{3-[(6-fluoro-1-naphthyl)oxy]propyl}-2-methyl-2,10,11,12,13,15-hexahydropyrazolo[4′,3′:9,10][1,6]oxazacycloundecino[8,7,6-hi]indole-8-carboxylic Acid], the IC50 in assay [1] amounted to 12200 nM; in assay [4] (Homo sapiens, AMO1, 72 h) it was 1360 nM. Also, the EC50 is 960 nM in assay [2] (Homo sapiens, SU-DHL-5, 3 h) and 1100 nM in assay [3] (Homo sapiens, SU-DHL10, 3 h).

`Cc1c2c(nn1C)C(CCN1CCOCC1)OCCCCn1c(C(=O)O)c(CCCOc3cccc4cc(F)ccc34)c3ccc(Cl)c-2c31` (racemic) [Example 16, (rac)-4-chloro-7-{3-[(6-fluoronaphthalen-1-yl)oxy]propyl}-2,3-dimethyl-15-[2-(morpholin-4-yl)ethyl]-2,10,11,12,13,15-hexahydropyrazolo[4′,3′:9,10][1,6]oxazacycloundecino[8,7,6-hi]indole-8-carboxylic Acid]: the IC50 in assay [1] was more than 20000 nM; in assay [4] (Homo sapiens, AMO1, 72 h), 48.3 nM. The EC50 turned out to be 6.8 nM in assay [2] (Homo sapiens, SU-DHL-5, 3 h) and 19 nM in assay [3] (Homo sapiens, SU-DHL10, 3 h).

As for `CCc1c2c(nn1C)C(CC(C)(C)O)OCCCCn1c(C(=O)O)c(CCCOc3cccc4cc(F)ccc34)c3ccc(Cl)c-2c31` (single isomer, unassigned; enantiomer 21) [Example 54, (−)-4-chloro-3-ethyl-7-{3-[(6-fluoronaphthalen-1-yl)oxy]propyl}-15-(2-hydroxy-2-methylpropyl)-2-methyl-2,10,11,12,13,15-hexahydropyrazolo[4′,3′:9,10][1,6]oxazacycloundecino[8,7,6-hi]indole-8-carboxylic Acid—N-ethylethanamine Salt (Enantiomer 21], the IC50 was more than 20000 nM in assay [1] and 27800 nM in assay [4]. Also, the EC50 in assay [2] was 6500 nM; in assay [3], 14000 nM.

Consider `CCc1c2c(nn1C)C(CC(C)(C)O)OCCCCn1c(C(=O)O)c(CCCOc3cccc4cc(F)ccc34)c3ccc(Cl)c-2c31` (single isomer, unassigned; enantiomer 1) [Example 53, (+)-4-chloro-3-ethyl-7-{3-[(6-fluoronaphthalen-1-yl)oxy]propyl}-15-(2-hydroxy-2-methylpropyl)-2-methyl-2,10,11,12,13,15-hexahydropyrazolo[4′,3′:9,10][1,6]oxazacycloundecino[8,7,6-hi]indole-8-carboxylic Acid—N-ethylethanamine Salt (Enantiomer 1)], for which the IC50 in assay [1] was determined as 17000 nM; in assay [4] it was 185 nM. In addition, the EC50 in assay [2] was determined as 76 nM; in assay [3] it was 160 nM.

Consider `CCc1c2c(nn1C)C(CCN1CCOCC1)OCCCCn1c(C(=O)O)c(CCCOc3cccc4cc(F)ccc34)c3ccc(Cl)c-2c31` (racemic) [Example 22, (rac)-4-chloro-3-ethyl-7-{3-[(6-fluoronaphthalen-1-yl)oxy]propyl}-2-methyl-15-[2-(morpholin-4-yl)ethyl]-2,10,11,12,13,15-hexahydropyrazolo[4′,3′:9,10][1,6]oxazacycloundecino[8,7,6-hi]indole-8-carboxylic Acid], for which the IC50 in assay [1] was more than 20000 nM; in assay [4] (Homo sapiens, AMO1, 72 h), 32.2 nM. For the same compound, the EC50 in assay [2] (Homo sapiens, SU-DHL-5, 3 h) was 10 nM; in assay [3] (Homo sapiens, SU-DHL10, 3 h), 20 nM.

As to `CCc1c2c(nn1C)C(CCN1CCOCC1)OCCCCn1c(C(=O)O)c(CCCOc3cccc4ccccc34)c3ccc(F)c-2c31` (single isomer, unassigned; enantiomer 2) [Example 12, 3-ethyl-4-fluoro-2-methyl-15-[2-(morpholin-4-yl)ethyl]-7-{3-[(naphthalen-1-yl)oxy]propyl}-2,10,11,12,13,15-hexahydropyrazolo[4′,3′:9,10][1,6]oxazacycloundecino[8,7,6-hi]indole-8-carboxylic Acid—N-ethylethanamine Salt (Enantiomer 2)], the results for the IC50 in assay [1] and in assay [4] were more than 20000 nM and 12100 nM, respectively. In addition, the EC50 was found to be 2700 nM in assay [2] and 7100 nM in assay [3].

Consider `CCC1OCCCCn2c(C(=O)O)c(CCCOc3cccc4ccccc34)c3ccc(Cl)c(c32)-c2c1nn(C)c2C` (single isomer, unassigned; enantiomer 2) [Example 30, (−)-4-chloro-15-ethyl-2,3-dimethyl-7-{3-[(naphthalen-1-yl)oxy]propyl}-2,10,11,12,13,15-hexahydropyrazolo[4′,3′:9,10][1,6]oxazacycloundecino[8,7,6-hi]indole-8-carboxylic Acid—N-ethylethanamine Salt (Enantiomer 2)], for which the IC50 in assay [1] was more than 20000 nM; in assay [4], 31600 nM. In addition, the EC50 in assay [2] and in assay [3] was more than 33000 nM in each case.

As to `CCC1OCCCCn2c(C(=O)O)c(CCCOc3cccc4ccccc34)c3ccc(Cl)c(c32)-c2c1nn(C)c2C` (racemic) [Example 25, (rac)-4-chloro-15-ethyl-2,3-dimethyl-7-{3-[(naphthalen-1-yl)oxy]propyl}-2,10,11,12,13,15-hexahydropyrazolo[4′,3′:9,10][1,6]oxazacycloundecino[8,7,6-hi]indole-8-carboxylic Acid], the IC50 in assay [1] is more than 20000 nM; in assay [4] (Homo sapiens, AMO1, 72 h), 6550 nM. Moreover, the EC50 in assay [2] (Homo sapiens, SU-DHL-5, 3 h) came to 2000 nM; in assay [3] (Homo sapiens, SU-DHL10, 3 h), 10000 nM.

As for `CCc1c2c(nn1C)C(CCN1CCOCC1)OCCCCn1c(C(=O)O)c(CCCOc3cccc4ccccc34)c3ccc(F)c-2c31` (racemic) [Example 10, (rac)-3-ethyl-4-fluoro-2-methyl-15-[2-(morpholin-4-yl)ethyl]-7-[3-(naphthalen-1-yloxy)propyl]-2,10,11,12,13,15-hexahydropyrazolo[4′,3′:9,10][1,6]oxazacycloundecino[8,7,6-hi]indole-8-carboxylic Acid], the IC50 was more than 20000 nM in assay [1] and 412 nM in assay [4] (Homo sapiens, AMO1, 72 h). Further, the EC50 in assay [2] (Homo sapiens, SU-DHL-5, 3 h) is 110 nM; in assay [3] (Homo sapiens, SU-DHL10, 3 h) it was 220 nM.

Take `Cc1c2c(nn1C)C(CCN1CCOCC1)OCCCCn1c(C(=O)O)c(CCCOc3cccc4cc(F)ccc34)c3ccc(Cl)c-2c31` (single isomer, unassigned; enantiomer 2) [Example 18, 4-chloro-7-{3-[(6-fluoronaphthalen-1-yl)oxy]propyl}-2,3-dimethyl-15-[2-(morpholin-4-yl)ethyl]-2,10,11,12,13,15-hexahydropyrazolo[4′,3′:9,10][1,6]oxazacycloundecino[8,7,6-hi]indole-8-carboxylic Acid (Enantiomer 2)]: the IC50 was more than 20000 nM in assay [1] and 2370 nM in assay [4] (Homo sapiens, AMO1, 72 h). Further, the EC50 in assay [2] (Homo sapiens, SU-DHL-5, 3 h) stood at 530 nM; in assay [3] (Homo sapiens, SU-DHL10, 3 h), 2300 nM.

The values above are taken from patent publication US11440923B2, “Substituted macrocyclic indole derivatives” (Bayer Aktiengesellschaft, priority 2017, dated 2022).
